This is an account of results in patent US8716249B2, “Compositions and methods for improving cardiovascular health” (Energy Light LLC, priority 2008, dated 2014).

Each structure is given as a SMILES string. Read-outs that look alike come from different tables or passages of the source. Bounds are passed on as bounds.

The conditions of experiment [1]: cited from earlier work.
The nature of experiment [2]: Comparison of EAA+arginine with fenofibrate in a similar population of elderly (FIG. 2).
[3] abbreviates: patients with mixed hyperlipidemia, 80 mg atorvostatin daily or 200 mg fenofibrate.

Regarding `CC(C)c1c(C(=O)Nc2ccccc2)c(-c2ccccc2)c(-c2ccc(F)cc2)n1CC[C@@H](O)C[C@@H](O)CC(=O)O` [atorvostatin], in experiment [1] (setting [3]), the “reduction of TGs” value is listed as 65% and the “reduction of VLDL” value was 57%.
As to `CC(C)OC(=O)C(C)(C)Oc1ccc(C(=O)c2ccc(Cl)cc2)cc1` [fenofibrate], in experiment [2] (fenofibrate treatment for 60 days), the “fall of plasma triglyceride concentration” value was “approximately 33%”. Further, the “effect on liver triglyceride” value in experiment [2] (treatment for 60 days) is recorded as “no significant effect”.
In the case of `Cc1ccc(C)c(OCCCC(C)(C)C(=O)O)c1` [gemfibrozil], the “time to maximal effects on TG” value in experiment [1] (gemfibrozil treatment) was at most 4 weeks. Further, the “decrease of TG concentrations” value in experiment [1] (patients with hypertryglyceridemia and hypercholesterolemia) is 45%; in experiment [1] (patients with isolated hypercholesterolemia), 38%.
